Results from PubChem BioAssay (NCI).
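Dose response: 5 concentrations. Exposure: 48 h. Format: 96-well plates. Endpoint: linear interpolation; highest concentration if not reached. GI50 = concentration required for 50% inhibition of growth. TGI marks complete inhibition of growth.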

What was measured:
Assay in all cases: NCI-60 cell line screen, 48 h
[1] = test system: HT29 colon
[2] = test system: MOLT-4 leukemia
[3] = test system: IGROV1 ovarian
[4] = test system: CAKI-1 renal
[5] = test system: M14 melanoma
[6] = test system: HCC-2998 colon
[7] = test system: UACC-62 melanoma
[8] = test system: ACHN renal

SMILES | GI50 [1] [µM] | TGI [1] [µM] | GI50 [2] [µM] | TGI [2] [µM] | GI50 [3] [µM] | TGI [3] [µM] | GI50 [4] [µM] | TGI [4] [µM] | GI50 [5] [µM] | TGI [5] [µM] | GI50 [6] [µM] | TGI [6] [µM] | GI50 [7] [µM] | TGI [7] [µM] | GI50 [8] [µM] | TGI [8] [µM]
Cc1nc(Nc2ccccn2)sc1C(=O)/C=C/c1ccc(Cl)cc1 | 0.47 | 47.5 | 0.592 | > 100 | 0.413 | 30.6 | 0.46 | 13.4 | 0.342 | > 67.1 | 0.383 | 9.62 | 0.631 | 49.8 | 0.559 | 31
Cc1nc2c(n1C)C(=O)c1ccccc1C2=O | 37.2 | > 100 | 85 | > 100 | 31.3 | > 100 | 29.4 | > 100 | 43 | > 100 | 67.6 | > 100 | 56 | > 100 | > 100 | > 100
C1=C2CCCC3=Cc4ccccc4OC23Oc2ccccc21 | 3.52 | 17.9 | 3.66 | > 100 | 5.36 | > 100 | 3.71 | > 100 | 3.37 | > 100 | 10.3 | 60.7 | 2.91 | 82.5 | 5.06 | > 100
Cc1nc2ccc(NC(=O)CCNC(=O)CCCc3ccc(CC(C(=O)O)C(=O)O)cc3)cc2s1 | > 100 | > 100 | > 100 | > 100 | > 100 | > 100 | > 100 | > 100 | > 100 | > 100 | > 100 | > 100 | > 100 | > 100 | > 100 | > 100
O=c1[nH]c2ccccc2n1CCCN1CCC(n2c(=O)[nH]c3cc(Cl)ccc32)CC1 |  | 30.3 |  | 45.1 |  | 41.3 |  | 50.6 |  | 29.9 |  | 30.4 |  | 37.2 |  | 32.9
O=c1cc(N/N=C/c2ccc(F)cc2)c2cc(Cl)ccc2[nH]1 | 23.1 | > 100 | 4.07 | > 100 | 18.5 | > 100 | 23.5 | > 100 | 10.2 | > 100 | 32.4 | > 100 | 16.7 | > 100 | 17.2 | 72.1
COc1ccc(-c2nc(-c3nc4ccc(F)cc4[nH]3)c3ccccn23)cc1 | 7.13 | > 100 | 3.83 | > 100 | 6.63 | 47.2 | 12.1 | > 100 | 12.9 | > 100 | 6.59 | > 100 | 5.41 | 36.1 | 4.28 | 25.9
COc1cc(NC(=O)CCSc2nc3ccc(C)cc3c(=O)n2Cc2ccccc2)cc(OC)c1OC | > 100 | > 100 | > 100 | > 100 | 27.7 | > 100 | > 100 | > 100 | 24.4 | > 100 | > 100 | > 100 | 15.7 | > 100 | 3.72 | 34.9
COc1cc2c(cc1OC)C(=O)/C(=C/c1cc(-c3ccc4c(c3)OCO4)n[nH]1)C2 | 1.45 | 3.09 | 2.57 | 6.97 | 1.89 | 4.58 | 1.5 | 3 | 1.82 | 3.4 | 1.88 | 3.44 | 1.63 | 3.04 | 1.73 | 3.23
Cn1cc(-c2ccc3nnc(Sc4ccc5ncccc5c4)n3n2)cn1 | > 100 | > 100 | > 100 | > 100 | > 88.6 | > 100 | 40.8 | > 100 | > 100 | > 100 | > 100 | > 100 | > 100 | > 100 | 54.1 | > 100
O=C(c1ccccc1)c1c(NCC(O)CN2CCOCC2)n(Cc2ccccc2)c(=O)n(Cc2ccccc2)c1=O (stereo not drawn) | 26.4 | > 62.9 | 32.4 | > 95.5 | 38.5 | > 100 | 32.5 | > 100 | 38.9 | > 100 | 1.26 | 4.86 | 36.7 | > 100 | 40.5 | > 100
